From patent publication US20250122192A1, “5-PYRIMIDINECARBOXAMIDE DERIVATIVES AND METHODS OF USING THE SAME” (Rgenta Therapeutics, Inc., priority 2021, published 2025)
Structures can show the parent of a compound that is named as a salt.

These compounds were tested on PMS1 (assay: Mini-gene reporter assay-PMS1). Conditions: Homo sapiens, HEK293, PMS1 mini-gene firefly luciferase reporter transiently transfected into HEK293 cells; read-out: PMS1 IC50.
Assay type: cell-based
In short: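 HEK293 cells transiently transfected with a mini-gene construct: skipped exon with flanking introns and exons fused to firefly luciferase in pcDNA3.1, so exon inclusion raises luciferase signal. Compounds tested in duplicate dilutions, luminescence read after incubation, EC50 fitted by Levenberg-Marquardt.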

| SMILES | IC50 |
| --- | --- |
| CCOc1nc(N2CC(C)OC3(CCNC3)C2)ncc1C(=O)Nc1cc(F)c2nc(C)cn2c1 (centres unmarked) [Compound 149] | > 3000 nM |
| CCOc1nc(N2CCCC2CNC)ncc1C(=O)Nc1cc(F)c2nc(C)cn2c1 (centres unmarked) [Compound 188] | 1000 to 3000 nM |
| CCOc1nc(N2CC(C3CNC3)C2)ncc1C(=O)Nc1cn2cc(C)nc2c(C)n1 [Compound 52] | > 3000 nM |
| CCOc1nc(N2CC3(CCNCC3)C2)ncc1C(=O)Nc1cc(F)c2nc(C)cn2c1 [Compound 239] | < 500 nM |
| CCOc1nc(N2CCC(NC)C2)ncc1C(=O)Nc1cn2cc(C)nc2c(C)n1 (centres unmarked) [Compound 99] | < 500 nM |
| CCOc1nc(N2CCC(NC)C2)ncc1C(=O)Nc1cnc2nc(C)cn2c1 (centres unmarked) [Compound 287, 4-ethoxy-2-(3-(methylamino)pyrrolidin-1-yl)-N-(2-methylimidazo[1,2-a]pyrimidin-6-yl)pyrimidine-5-carboxamide fomate] | 1000 to 3000 nM |
| CCOc1nc(N2CC3CNCCC32)ncc1C(=O)Nc1cn2cc(C)nc2c(C)n1 (centres unmarked) [Compound 77] | < 500 nM |
| CCOc1nc(N2CCNC(CF)C2)ncc1C(=O)Nc1cc(F)c2nc(C)cn2c1 (centres unmarked) [Compound 111] | > 3000 nM |
| CCOc1nc(N2CC[C@@H]3NCCC[C@@H]3C2)ncc1C(=O)Nc1cn2cc(C)nc2c(C)n1 (racemic) [Compound 31] | > 3000 nM |
| CCOc1nc(N2CCC(C3NCC3(C)C)CC2)ncc1C(=O)Nc1cc(F)c2nc(C)cn2c1 (centres unmarked) [Compound 123] | < 500 nM |
| CCOc1nc(N2CCC(CNC(C)C)CC2)ncc1C(=O)Nc1cc(F)c2nc(C)cn2c1 [Compound 119] | < 500 nM |
| CCOc1nc(N2CCNCC2)ncc1C(=O)Nc1cn2cc(C)nc2c(C)n1 [Compound 16, N-{2,8-dimethylimidazo[1,2-a]pyrazin-6-yl}-4-ethoxy-2-(piperazin-1-yl)pyrimidine-5-carboxamide] | > 3000 nM |
| CCOc1nc(N2CCN[C@H](C)C2)ncc1C(=O)Nc1cc(F)c2nc(C)oc2c1 [Compound 13] | 500 to 1000 nM |
| CCOc1nc(N2CC3CCC2C2CNCC32)ncc1C(=O)Nc1cn2cc(C)nc2c(C)n1 (centres unmarked) [Compound 97] | 1000 to 3000 nM |
| CCOc1nc(N2CCC(NCC3CC3)CC2)ncc1C(=O)Nc1cn2cc(C)nc2c(C)n1 [Compound 74] | > 3000 nM |
| CCOc1nc(N2CC(C)NCC2C)ncc1C(=O)Nc1cn2cc(C)nc2c(C)n1 (centres unmarked) [Compound 32] | 1000 to 3000 nM |
| CCOc1nc(N2CC[C@H](NC)C2)ncc1C(=O)Nc1ccc2nc(C)cn2c1 [Compound 293, (S)-4-ethoxy-2-(3-(methylamino)pyrrolidin-1-yl)-N-(2-methylimidazo[1,2-a]pyridin-6-yl)pyrimidine-5-carboxamide formate] | > 3000 nM |
| CCOc1nc(N2CC(NC)C2)ncc1C(=O)Nc1cc(F)c2nn(C)cc2c1 [Compound 254, 4-ethoxy-N-(7-fluoro-2-methyl-2H-indazol-5-yl)-2-(3-(methylamino)azetidin-1-yl)pyrimidine-5-carboxamide hydrochloride] | > 3000 nM |
| CCOc1nc(N(C)[C@@H]2C[C@H]3CC[C@@H](C2)N3)ncc1C(=O)Nc1cn2cc(C)nc2c(C)n1 [Compound 56] | 500 to 1000 nM |
| CCOc1nc(N2CCCNCC2)ncc1C(=O)Nc1cc(F)c2nc(C)cn2c1 [Compound 15, 2-(1,4-diazepan-1-yl)-4-ethoxy-N-{8-fluoro-2-methylimidazo[1,2-a]pyridin-6-yl}pyrimidine-5-carboxamide] | < 500 nM |
| CCOc1nc(N2CCC(C3CCNC3)C2)ncc1C(=O)Nc1cc(F)c2nc(C)cn2c1 (centres unmarked) [Compound 127] | 500 to 1000 nM |
| CCOc1nc(N2CCC3(CCCNC3)C2)ncc1C(=O)Nc1cn2cc(C)nc2c(C)n1 (centres unmarked) [Compound 106] | > 3000 nM |
| CCOc1nc(N2CCC3(CCN3)C2)ncc1C(=O)Nc1cn2cc(C)nc2c(C)n1 (centres unmarked) [Compound 82] | 1000 to 3000 nM |
| CCOc1nc(N2CC[C@@H](CNC)C2)ncc1C(=O)Nc1cc(F)c2nc(C)cn2c1 [Compound 304, (S)-4-ethoxy-N-(8-fluoro-2-methylimidazo[1,2-a]pyridin-6-yl)-2-(3-((methylamino)methyl)pyrrolidin-1-yl)pyrimidine-5-carboxamide 4-methylbenzenesulfonate] | 500 to 1000 nM |

Same assay, conditions: Homo sapiens, HEK293, read-out: PMS1 IC50 (nM)

| SMILES | IC50 |
| --- | --- |
| CCOc1nc(N2CCNCC2)ncc1C(=O)Nc1cc(F)c2nc(C)cn2c1 [Compound 2, 4-ethoxy-N-{8-fluoro-2-methylimidazo[1,2-a]pyridin-6-yl}-2-(piperazin-1-yl)pyrimidine-5-carboxamide] | < 500 nM |

Same assay, conditions: Homo sapiens; at 5 μM; PMS1 mini-gene firefly luciferase reporter in HEK293 cells; read-out: PMS1% Effect at 5 μM

| SMILES | activation at 5 µM |
| --- | --- |
| CCOc1nc(N2CCNC(CC(F)F)C2)ncc1C(=O)Nc1cc(F)c2nc(C)cn2c1 (single isomer, unassigned) [Compound 309] | 50 to 75% |
